Source: the NIST ThermoML archive (doi:10.1016/j.jct.2015.07.028)
Numbers after ± are expanded uncertainties.

Assay: molar enthalpy of vaporization or sublimation
Settings: 305.12 K; Liquid; Static calorimetry

With `C=CC(C)(C)O` [2-methyl-3-buten-2-ol] the molar enthalpy was 46.9 ± 1.6 kJ/mol.
